Results from paper PMC6348443 (Journal of Medicinal Chemistry, 2018).
Counter-ions that a name gives are not always drawn.

How the values were obtained:
[1] = molecular target: T1, MOR (Homo sapiens, UniProt P35372); test: [35S]GTPγS binding assay, CHO-hMOR membranes; format: biochemical; conditions: for EC50: [35S]GTPγS, CHO human MOR membranes, read-out: MOR EC50; for functional profile at MOR (full/partial agonist): full agonist ≥85% of the response to DAMGO; for Emax: relative to reference full agonist DAMGO, read-out: MOR % stim.
T1 construct: host or cells: CHO (CHO-hMOR)
Procedure: (§1) Efficacies are presented as percentage stimulation relative to the standard full agonists, [D-Ala^2,N-Me-Phe4,Gly-ol^5]enkephalin (DAMGO for MOR),[53] [D-Pen^2,D-Pen^5]enkephalin (DPDPE for DOR)[54] and N-methyl-2-phenyl-N-[(5R,7S,8S)-7-(pyrrolidin-1-yl)-1-oxaspiro[4.5]dec-8-yl]acetamide (U69,593 for KOR).[55]
(§2) Membranes from CHO cells expressing human opioid receptors were prepared in 50 mM Tris-HCl buffer (pH 7.7) according to a previously described procedure.[64] Cells expressing human opioid receptors grown at confluence were removed from the culture plates by scraping, homogenized in 50 mM Tris buffer (pH 7.7), using a Polytron homogenizer, then centrifuged once and washed by an additional centrifugation at 27 000g for 15 min, at 4 °C. The final pellet was resuspended in Tris buffer and stored at −80 °C until use. Protein content of brain and cell membrane preparation homogenates was determined by the method of Bradford using bovine serum albumin as the standard.[65]
(§3) Binding of [^35S]GTPγS to membranes from CHO cells stably expressing the human opioid receptors was conducted according to the published procedures.[49],[64] Cell membranes (5–10 μg) in 20 mM HEPES, 10 mM MgCl2, and 100 mM NaCl (pH 7.4) were incubated with 0.05 nM [^35S]GTPγS, 10 μM GDP, and various concentrations of test compound in a final volume of 1 mL, for 60 min at 25 °C. Nonspecific binding was determined using 10 μM GTPγS, and the basal binding was determined in the absence of test ligand. Samples are filtered over glass Whatman glass GF/B fiber filters and counted as described for binding assays. All experiments were performed in duplicate and repeated at least three times.
(§4) Data were analyzed and graphically processed using the GraphPad Prism 5.0 Software (GraphPad Prism Software Inc., San Diego, CA). For in vitro assays, inhibition constant (Ki in nM), potency (EC50 in nM), and efficacy (% stimulation) values were determined from concentration–response curves by nonlinear regression analysis. The Ki values were determined by the method of Cheng and Prusoff.[66] In the [^35S]GTPγS binding assays, efficacy was determined relative to the reference full opioid agonists, DAMGO (MOR), DPDPE (DOR), and U69,593 (KOR). In vitro data are presented as mean ± SEM of three to four independent experiments each performed in duplicate. […] Each experimental group included six to seven mice. Data were statistically evaluated using one-way ANOVA with Tukey’s post hoc test for multiple comparisons with significance set at P < 0.05.

[2] = molecular target: T2, DOR (Homo sapiens, UniProt P41143); test: [35S]GTPγS binding assay, CHO-hDOR membranes; format: biochemical; conditions: for increased agonist potency at DOR vs MOR: [35S]GTPγS EC50; for EC50: [35S]GTPγS, CHO human DOR membranes; for Emax: relative to reference full agonist DPDPE, read-out: DOR % stim.
T2 construct: host or cells: CHO (CHO-hDOR)
Procedure: as §1, §2, §3, §4

[3] = test system: male CD1 mice; test: acetic acid-induced writhing assay after sc administration; format: in vivo, mouse; conditions: Mus musculus, 0.5 h, read-out: ED50 (95% CI), mice, sc, inhibition of writhing 30 min after drug administration
Procedure: Solutions of test compounds were prepared in sterile physiological 0.9% saline and further diluted to working doses in saline solution. Test compounds or saline (control) were administered by sc route in a volume of 10 μL/1 g of body weight. All doses are expressed in terms of salts. Separate groups of mice received the respective dose of compound, and individual mice were only used once for behavioral testing.
Writhing was induced in male CD1 mice by ip injection of a 0.6% acetic acid aqueous solution as described previously.[48],[62] Groups of mice were administered sc different doses of test compound or saline (control), and 5 min prior to testing (25 min after drug or saline), each animal received an ip injection of acetic acid solution. Each mouse was placed in individual transparent Plexiglas chambers, and the number of writhes was counted during a 10 min observation period. […] For the antagonism study, naloxone methiodide was sc co-administered with the respective opioid agonist, and writhing was assessed as described above.
as §4

[4] = molecular target: T3, KOR (Cavia porcellus, UniProt P41144); test: competition radioligand binding, guinea-pig brain membranes, [3H]U69,593; conditions: guinea-pig brain membranes; read-out: opioid receptor binding Ki KOR
T3 construct: Membranes were prepared from Sprague-Dawley rat brains or guinea-pig brains according to the described procedures; tissue Labortierkunde und Laborgenetik, Medizinische Universität Wien; host or cells: guinea-pig brain without cerebella
Procedure: (§5) Competition binding assays using rat brain (MOR and DOR) and guinea-pig brain (KOR) membranes (Table 1) were performed according to published procedures.[44],[49] […] In addition, we have assessed binding at the human opioid receptors stably transfected in Chinese hamster ovary (CHO) cells (Table S1).
(§6) Membranes were prepared from Sprague-Dawley rat brains or guinea-pig brains according to the described procedures.[44],[45] Brains without cerebella were homogenized on ice in 5 vol/wt of ice-cold 50 mM Tris-HCl buffer (pH 7.4) and diluted in 30 vol/wt of the same buffer. After centrifugation at 40 000g for 20 min at 4 °C, the pellets were resuspended in 30 vol/wt of 50 mM Tris-HCl buffer (pH 7.4) and incubated at 37 °C for 30 min. The centrifugation step described above was repeated, and the final pellets were resuspended in 5 vol/wt of 50 mM Tris-HCl buffer (pH 7.4) containing 0.32 M sucrose and stored at −80 °C until use.
(§7) Rat brain membranes were incubated with either [^3H]DAMGO (1 nM, 45 min, 35 °C) or [^3H][Ile^5,6]deltorphin II (0.5 nM, 45 min, 35 °C) for labeling MOR or DOR receptors, respectively. Guinea-pig brain membranes were incubated with [^3H]U69,593 (1 nM, 30 min, 30 °C) for labeling KOR. Binding assays with CHO cell membranes were conducted at 25 °C for 60 min using [^3H]DAMGO (1 nM) or [^3H]diprenorphine (0.2 nM) for labeling MOR or DOR, respectively. Nonspecific binding was determined using 10 μM naloxone (rodent brain) or 1–10 μM of the unlabeled counterpart of each radioligand (CHO cells). Reactions were terminated by rapid filtration through Whatman glass fiber GF/C filters. Filters were washed three times with 5 mL of ice-cold 50 mM Tris-HCl buffer (pH 7.4) using a Brandel M24R cell harvester (Gaithersburg, MD). Radioactivity retained on the filters was counted by liquid scintillation counting using a Beckman Coulter LS6500 (Beckman Coulter Inc., Fullerton, CA). All binding experiments were performed in duplicate and repeated at least three times.
as §4

[5] = molecular target: T4, MOR (Rattus norvegicus, UniProt P33535); test: competition radioligand binding, rat brain membranes, [3H]DAMGO; conditions: for Ki: rat brain membranes, read-out: opioid receptor binding Ki MOR
T4 construct: Membranes were prepared from Sprague-Dawley rat brains or guinea-pig brains according to the described procedures; tissue Labortierkunde und Laborgenetik, Medizinische Universität Wien; host or cells: Sprague-Dawley rat brain without cerebella
Procedure: as §5, §6, §7, §4

[6] = molecular target: T5, DOR (Rattus norvegicus, UniProt P33533); test: competition radioligand binding, rat brain membranes, [3H][Ile5,6]deltorphin II; conditions: rat brain membranes; read-out: opioid receptor binding Ki DOR
T5 construct: Membranes were prepared from Sprague-Dawley rat brains or guinea-pig brains according to the described procedures; tissue Labortierkunde und Laborgenetik, Medizinische Universität Wien; host or cells: Sprague-Dawley rat brain without cerebella
Procedure: as §5, §6, §7, §4

[7] = molecular target: T6, KOR (Homo sapiens, UniProt P41145); test: [35S]GTPγS binding assay, CHO-hKOR membranes; format: biochemical; conditions: for EC50: [35S]GTPγS, CHO human KOR membranes, read-out: KOR EC50; for functional profile at KOR (full/partial agonist): partial agonist <85% of the response to U69,593; for Emax: relative to reference full agonist U69,593, read-out: KOR % stim.
T6 construct: host or cells: CHO (CHO-hKOR)
Procedure: as §1, §2, §3, §4

Compound	EC50 [1]	functional profile at MOR (full/partial agonist) [1]	Emax [1]	increased agonist potency at DOR vs MOR [2]	EC50 [2]	Emax [2]	ED50 [3]	Ki [4]	Ki [5]	Ki [6]	EC50 [7]	functional profile at KOR (full/partial agonist) [7]	Emax [7]	increase in MOR binding affinity vs comparator ([5]; rat brain, 17b vs 4b, 16a/b vs 7a/b, 22a/b vs 7a, 7b and 9b, 14a vs 14b)	Ki ratio MOR/DOR/KOR ([5]; from Ki in rat (MOR, DOR) and guinea-pig (KOR) brain membranes)
CO[C@@]12CC[C@@H](N[C@H](C(=O)O)C(C)C)[C@@H]3Oc4c(O)ccc5c4[C@@]31CCN(C)[C@@H]2C5 [Compound 7b, (2S)-2-[(4,5α-Epoxy-3-hydroxy-14β-methoxy-17-methylmorphinan-6β-yl)amino]-3-methylbutyric Acid Dihydrochloride]	11.7 ± 5.7 nM	partial agonist	~80%	2–4 times	5.73 ± 2.48 nM	96 ± 9%	0.117 mg/kg	305 ± 39 nM	3.04 ± 0.12 nM	3.52 ± 0.04 nM	1120 ± 411 nM	partial agonist	68 ± 10%		
CO[C@@]12CC[C@@H](N[C@@H](Cc3ccc(O)cc3)C(=O)O)[C@@H]3Oc4c(O)ccc5c4[C@@]31CCN(C)[C@@H]2C5.Cl.Cl [Compound 9b, (2S)-2-[(4,5α-Epoxy-3-hydroxy-14β-methoxy-17-methylmorphinan-6β-yl)amino]-3-(4-hydroxyphenyl)propionic Acid Dihydrochloride]	24.7 ± 9.8 nM		93 ± 7%	2–4 times	6.23 ± 1.03 nM	95 ± 0.8%		186 ± 33 nM	3.2 ± 0.55 nM	3.89 ± 0.64 nM	774 ± 57 nM		60 ± 3%		
CO[C@@]12CC[C@H](N[C@@H](Cc3c[nH]c4ccccc34)C(=O)O)[C@@H]3Oc4c(O)ccc5c4[C@@]31CCN(C)[C@@H]2C5 [Compound 10a, (2S)-2-[(4,5α-Epoxy-3-hydroxy-14β-methoxy-17-methylmorphinan-6α-yl)-amino]-3-(1H-indolo-3yl)propionic Acid Dihydrochloride]	0.51 ± 0.34 nM		93 ± 9%		2.52 ± 1.41 nM	102 ± 8%		25.1 ± 9.3 nM	0.36 ± 0.01 nM	1.02 ± 0.12 nM	70.1 ± 20.5 nM		61 ± 8%		
CO[C@@]12CC[C@@H](N[C@@H](CC(=O)O)C(=O)O)[C@@H]3Oc4c(O)ccc5c4[C@@]31CCN(C)[C@@H]2C5 [Compound 13b, (2S)-2-[(4,5α-Epoxy-3-hydroxy-14β-methoxy-17-methylmorphinan-6β-yl)amino]butanedioic Acid Dihydrochloride]	1.45 ± 0.01 nM	partial agonists	~70%		11.8 ± 2.2 nM	101 ± 1%		351 ± 43 nM	3.42 ± 0.05 nM	22.6 ± 2.2 nM	753 ± 358 nM		49 ± 7%		
CO[C@@]12CC[C@H](N[C@@H](C(=O)O)C(C)C)[C@@H]3Oc4c(O)ccc5c4[C@@]31CCN(C)[C@@H]2C5 [Compound 16a]	4.51 ± 2.35 nM		105 ± 4%	ca. 4 times	1.12 ± 0.69 nM	93 ± 4%		202 ± 3 nM	1.7 ± 0.09 nM	1.93 ± 0.24 nM	2220 ± 818 nM	full agonists	96 ± 16%	2–3 times	
CO[C@@]12CC[C@@H](NCCC(=O)O)[C@@H]3Oc4c(O)ccc5c4[C@@]31CCN(C)[C@@H]2C5 [Compound 20b, 3-[(4,5α-Epoxy-3-hydroxy-14β-methoxy-17-methylmorphinan-6β-yl)amino]propionic Acid Dihydrochloride]	5.74 ± 0.47 nM		~80%		20.1 ± 10.7 nM	99 ± 3%		71.4 ± 4.6 nM	1.04 ± 0.04 nM	13.9 ± 1.7 nM	622 ± 311 nM		67 ± 12%		1/13/69
CO[C@@]12CC[C@@H](NCCCC(=O)O)[C@@H]3Oc4c(O)ccc5c4[C@@]31CCN(C)[C@@H]2C5 [Compound 21b]	12.3 ± 6.8 nM		86 ± 7%	2–4 times	6.06 ± 1.07 nM	103 ± 6%		147 ± 13 nM	1.41 ± 0.13 nM	6.61 ± 0.67 nM	3400 ± 1980 nM	full agonists	74 ± 5%		
